Results reported in paper PMC11985751, “Synthesis, bioactivity, and molecular docking studies: novel arylpiperazine derivatives as potential new-resistant AR antagonists” (Frontiers in Chemistry, 2025).

Experiments:
[1] = test system: WPMY-1; experiment: In vitro cytotoxicity, CCK-8 assay (normal prostatic epithelial cells); type: cell-based; conditions: Homo sapiens; WPMY-1 normal prostatic epithelial cells, CCK-8, mean ± SD of three trials
Description: (§1) PC-3 and WPMY-1 cells were cultured in Dulbecco’s modiffcation Eagle’s medium (DMEM, Invitrogen, Carlsbad, CA, United States) supplemented with 10% fetal bovine serum (FBS, Hyclone, Logan, UT, United States), 100 U/mL penicillin and 0.1 mg/mL streptomycin (Invitrogen). DU145 cells were cultured in RPMI1640 media supplemented with 10% fetal bovine serum (FBS, Hyclone), 100 U/mL penicillin and 0.1 mg/mL streptomycin (Invitrogen). LNCaP cells were cultured in F12 media supplemented with 10% fetal bovine serum (FBS, Hyclone), 100 U/mL penicillin and 0.1 mg/mL streptomycin (Invitrogen). The cells were incubated at 37°C in a humidified atmosphere with 5% CO2([Chen et al., 2025]; [Jiang et al., 2024]). […]
(§2) The compound concentrations were set at 30, 15, 7.5, 3.75, 1.88, and 0.94 μmol/L. The absorbance (A) was measured at 450 nm using a microplate reader. […] All experiments were repeated three times under identical conditions, and the mean value was taken as the final result.
(§3) The cytotoxic activity of derivatives 5–24 against three human prostate cancer cell lines (PC-3, LNCaP, and DU145) and one type of human normal prostate epithelial cells was evaluated using the CCK-8 method.

[2] = test system: LNCaP; experiment: In vitro cytotoxicity, CCK-8 assay; type: cell-based, human; conditions: Homo sapiens, LNCaP, LNCaP cells, CCK-8, mean ± SD of three trials
Description: PC-3 and WPMY-1 cells were cultured in Dulbecco’s modiffcation Eagle’s medium (DMEM, Invitrogen, Carlsbad, CA, United States) supplemented with 10% fetal bovine serum (FBS, Hyclone, Logan, UT, United States), 100 U/mL penicillin and 0.1 mg/mL streptomycin (Invitrogen). DU145 cells were cultured in RPMI1640 media supplemented with 10% fetal bovine serum (FBS, Hyclone), 100 U/mL penicillin and 0.1 mg/mL streptomycin (Invitrogen). LNCaP cells were cultured in F12 media supplemented with 10% fetal bovine serum (FBS, Hyclone), 100 U/mL penicillin and 0.1 mg/mL streptomycin (Invitrogen). The cells were incubated at 37°C in a humidified atmosphere with 5% CO2([Chen et al., 2025]; [Jiang et al., 2024]).
The proliferative capacity of cells was evaluated through the implementation of a Cell Counting Kit-8 (CCK-8) assay, supplied by Dojindo (Japan), to quantify cellular growth. Post-transfection, cells were dispensed into a 96-well microplate at a density of 3 × 10^3 cells per well and incubated for intervals of 0, 24, 48, 72, 96, and 120 h. Following this, 10 μL of the CCK-8 solution was introduced into each well and the plates were returned to the incubator for an additional 2-h period at 37°C under 5% CO2 conditions. Absorbance readings at 450 nm were subsequently taken using an ELISA reader manufactured by Bio Tek (United States) ([Chen et al., 2022]; [Zhou et al., 2024]).
as §2, §3

[3] = test system: DU145; experiment: In vitro cytotoxicity, CCK-8 assay; type: cell-based; conditions: Homo sapiens, DU-145; DU145 cells, CCK-8, mean ± SD of three trials
Description: as §1, §2, §3

[4] = test system: PC-3; experiment: In vitro cytotoxicity, CCK-8 assay; type: cell-based, human; conditions: Homo sapiens, PC-3, PC-3 cells, CCK-8, mean ± SD of three trials
Description: as §1, §2, §3

SMILES	IC50 [1] [µM]	IC50 [2] [µM]	IC50 [3] [µM]	IC50 [4] [µM]
c1ccc(OCCc2ccc(CN3CCN(C(c4ccccc4)c4ccccc4)CC3)cc2)cc1 [Compound 5, 1-benzhydryl-4-(4-(2-phenoxyethyl)benzyl)piperazine]	> 50	> 50	> 50	13.08 ± 0.12
Fc1ccc(OCCc2ccc(CN3CCN(C(c4ccccc4)c4ccccc4)CC3)cc2)cc1 [Compound 6, 1-benzhydryl-4-(4-(2-(4-fluorophenoxy)ethyl)benzyl)piperazine]	> 50	> 50	> 50	34.39 ± 0.17
N#Cc1ccc(OCCc2ccc(CN3CCN(C(c4ccccc4)c4ccccc4)CC3)cc2)cc1 [Compound 8, 4-(4-((4-benzhydrylpiperazin-1-yl)methyl)phenethoxy)benzonitrile]	17.56 ± 0.12	22.36 ± 0.2	19.83 ± 0.14	12.54 ± 0.11
Ic1ccc(OCCc2ccc(CN3CCN(C(c4ccccc4)c4ccccc4)CC3)cc2)cc1 [Compound 9, 1-benzhydryl-4-(4-(2-(4-iodophenoxy)ethyl)benzyl)piperazine]	> 50	> 50	> 50	15.2 ± 0.19
Clc1ccc(OCCc2ccc(CN3CCN(C(c4ccccc4)c4ccccc4)CC3)cc2)cc1Cl [Compound 10, 1-benzhydryl-4-(4-(2-(3,4-dichlorophenoxy)ethyl)benzyl)piperazine]	> 50	> 50	> 50	17.44 ± 0.07
Cc1cccc(OCCc2ccc(CN3CCN(C(c4ccccc4)c4ccccc4)CC3)cc2)c1 [Compound 12, 1-benzhydryl-4-(4-(2-(m-tolyloxy)ethyl)benzyl)piperazine]	28.54 ± 0.16	19.6 ± 0.23	34.43 ± 0.15	> 50
Clc1ccccc1OCCc1ccc(CN2CCN(C(c3ccccc3)c3ccccc3)CC2)cc1 [Compound 13, 1-benzhydryl-4-(4-(2-(2-chlorophenoxy)ethyl)benzyl)piperazine]	17.83 ± 0.17	12.2 ± 0.25	21.24 ± 0.16	15.35 ± 0.08
Brc1ccccc1OCCc1ccc(CN2CCN(C(c3ccccc3)c3ccccc3)CC2)cc1 [Compound 14, 1-benzhydryl-4-(4-(2-(2-bromophenoxy)ethyl)benzyl)piperazine]	> 50	> 50	> 50	19.12 ± 0.16
Cc1ccc(OCCc2ccc(CN3CCN(C(c4ccccc4)c4ccccc4)CC3)cc2)cc1 [Compound 15, 1-benzhydryl-4-(4-(2-(p-tolyloxy)ethyl)benzyl)piperazine]	14.72 ± 0.14	9.29 ± 0.23	13.7 ± 0.14	20.49 ± 0.12
CCOc1ccc(OCCc2ccc(CN3CCN(C(c4ccccc4)c4ccccc4)CC3)cc2)cc1 [Compound 16, 1-benzhydryl-4-(4-(2-(4-ethoxyphenoxy)ethyl)benzyl)piperazine]	> 50	> 50	> 50	13.6 ± 0.09
c1ccc(C(c2ccccc2)N2CCN(Cc3ccc(CCOc4ccc5c(c4)CCCC5)cc3)CC2)cc1 [Compound 18, 1-benzhydryl-4-(4-(2-((5,6,7,8-tetrahydronaphthalen-2-yl)oxy)ethyl)benzyl)piperazine]	> 50	> 50	14.4 ± 0.15	5.02 ± 0.12
COc1ccccc1N1CCN(CC(O)COc2cccc3ccccc23)CC1 (stereo not drawn) [Naftopidil, reference compound]	> 50	22.4 ± 0.61	34.58 ± 0.31	42.1 ± 0.79
